Laboratory results from patent publication US11021461B2, “Artificial catalyst system for selective acylation of chromosome protein” (THE UNIVERSITY OF TOKYO, priority 2015, dated 2021).
Square brackets hold non-standard residues; d marks the D form. Peptide text beside a SMILES is read from it. * marks the point of attachment. ξ: configuration not given here. Thr(3ξ) = CC(O)[C@H](N)C(=O)O; X1 = CN(CCC(=O)*)c1ccnc(CS)c1; ξR = N=C(N)NCCCC(N)C(=O)O; ξS = NC(CO)C(=O)O

What was measured:
Format in all cases: biochemical
[1] = target: T1, histones (reconstituted nucleosome) (Homo sapiens, UniProt P04908+P06899+P62805+P68431); experiment: Protein selective acetylation of reconstituted nucleosome mixed with cytoplasm fraction (western blotting, acetylated lysine antibody); details: reconstituted nucleosome + cytoplasm fraction 15%, Ligand-DSH 2 to 5 μM, acyl donor 1 mM, TCEP 100 μM, room temperature, 5 hours; FIG. 3A
T1 construct: made in house
Excerpt: (§1) Proteins were separated on a 4-20% SDS-PAGE gel, and transferred to a PVDF membrane, followed by blocking with 5% skim milk suspended in TBST for the reaction between the PVDF membrane and primary antibodies. The primary antibodies used were as follows.
(§2) Acetylated-lysine antibody (#9441, Cell Signaling), anti-acetyl Histone H4 (Lys77) (ABE186, Millipore), anti-acetyl Histone H2B (Lys120) (ab176430, Abcam), malonylated-lysine antibody (PTM-901, PTM Biolabs), glutarylated-lysine antibody (PTM-1151, PTM Biolabs), butyrylated-lysine antibody (PTM-301, PTM Biolabs), 2-hydroisobutyrylated antibody (PTM-801, PTM Biolabs), streptavidin-HRP (#3999S, Cell Signaling).
(§3) After washing with TBST, a secondary antibody (Anti-Rabbit IgG, HRP-linked, NA934V, GE) was reacted. The PVDF membrane was treated with a chemilluminescent detection reagent Luminata Forte Western HRP Substrate (Millipore), and the detection was performed using ImageQuant LAS 4000 (GE healthcare life sciences).
(§4) A buffer solution (20 mM Tris-HCl, pH 7.5) containing a reconstituted nucleosome (33 μg/mL 601 DNA) and a cytoplasm fraction (15%) was added with Ligand-DSH (2 to 5 μM), acyl CoA (1 mM), and TCEP (100 μM), followed by reaction at room temperature for 5 hours. Thereafter, western blotting was performed.
First, protein selectivity was evaluated. A reconstituted nucleosome prepared in accordance with a known method (Tachiwana, H. et al., Proceedings of the National Academy of Sciences of the United States of America 2010, 107, 10454-10459) and cytoplasm fractions acquired from living cells were mixed. Then, evaluation was carried out on whether or not the newly developed catalyst could selectively acetylate histones by western blotting using an acetylation lysine antibody (FIG. 3A).

[2] = target: T1, histones (reconstituted nucleosome); experiment: Acylation other than acetylation with catalyst and various acyl CoA (western blotting); details: catalyst with the corresponding acyl CoA; FIG. 9
Excerpt: as §1, §2, §3, §4
In light of the above, a study was carried out on whether or not acylation other than acetylation would be possible using the developed catalyst.

[3] = target: T2, reconstituted nucleosome (H2BK120, H4K77) (Homo sapiens, UniProt P04908+P06899+P62805+P68431); experiment: Lysine residue selective acetylation of reconstituted nucleosome (western blotting, residue-selective acetylated lysine antibodies); details: with acetyl CoA, FIG. 3B
T2 construct: made in house
Excerpt: as §1, §2
as §3, with “sciences). […]” for “sciences).”
Next, the selectivity of lysine residues in histones was evaluated. A similar reaction was evaluated by western blotting using a residue-selective acetylation lysine antibody.

reconstituted nucleosome = target: T3, reconstituted nucleosome (Homo sapiens, UniProt P04908+P06899+P62805+P68431); experiment: Yield determination by LC-MS/MS and exhaustive analysis of lysine residue selectivity; details: for lysine residue selectivity: acetylation of reconstituted nucleosome, FIGS. 5 and 6
T3 construct: made in house
Protocol: Cooled trichloroacetic acid (30 μL) was added, and the resultant was placed on ice for 30 minutes. After the centrifugation (4° C., 15000 rpm, 5 minutes), the supernatant was removed. After further centrifugation (4° C., 15000 rpm, 1 minute), the supernatant was again removed. Cooled acetone (450 μL) was added. After the centrifugation (4° C., 15000 rpm, 5 minutes), the supernatant was removed. After further centrifugation (4° C., 15000 rpm, 1 minute), the supernatant was again removed. The above procedure was repeated once more. […] A 1M sulfuric acid (25 μL) was added and placed on ice for 1 hour, followed by centrifugation (4° C., 15000 rpm, 5 minutes), and the supernatant was collected. Centrifugation (4° C., 15000 rpm, 1 minute) was performed again to collect the supernatant to combine with the earlier supernatant. The resultant was added with acetone (500 μL), followed by sufficient stirring, and was placed overnight at −30° C. After the centrifugation (4° C., 15000 rpm, 5 minutes), the supernatant was removed. After further centrifugation (4° C., 15000 rpm, 1 minute), the supernatant was again removed. After drying was performed with a centrifugal evaporator for 10 minutes, an aqueous solution of ammonium bicarbonate (0.1 M, 20 μL) was added. The resultant was added with a mixture of propionic anhydride and methanol (1:3, 20 μL) prepared immediately before, further added with ammonia water (15 μL), and was placed at room temperature for 30 minutes. Drying was performed with a centrifugal evaporator for 75 minutes, followed by treatment with a digestive enzyme.
In the case of trypsin: an aqueous solution of ammonium bicarbonate (0.1M, 50 μL) and trypsin (1 μg) were added, followed by reaction at 37° C. for 21 hours.
In the case of chymotrypsin: 100 mM Tris-HCl, 10 mM CaCl2 (50 μL, pH8.0), and chymotrypsin (8 μg) were added, followed by reaction at 25° C. for 21 hours.
A 5% aqueous solution of formic acid (25 μL) was added, followed by drying with a centrifugal evaporator for 75 minutes. The residue was dissolved in a 0.1% aqueous solution of formic acid (15 μL), and the resultant was used for LC-MS/MS.
Eksigent ekspert™ MicroLC 200
ESI-Q-TOF MS, positive-ion mode.
Precursor ions are designated, and for each of the precursor ions, 2 to 4 MS/MS fragment ions having the highest strength were selected. Ion extraction (±0.5 Da) was performed for the designated precursor ions and the MS/MS fragment ions, and the yield was calculated in accordance with the equation below.
For a chromatogram obtained by performing measurement in an Information Dependent Acquisition Mode, the yield was determined in accordance with the following equation from the peak area subjected to ion extraction (±0.5 Da) after designating the precursor ions. yield (%)=[A/A+P]×100 (here, A represents a peak area of an acetylated peptide and P represents a peak area of a propionylated peptide)

cytoplasm proteins = experiment: Comparison of reactivity of acetyl group donors with cytoplasm proteins (western blotting, anti-acetylated lysine antibody); details: acetyl group donor 1 mM, cytoplasm fraction 20%, room temperature, 10 hours; FIG. 1B
Protocol: Approximately 10^6 cells were detached from a culture dish by a trypsin treatment. After washed with PBS, the cell pellets were suspended in a cooled, cell lysis buffer [50 mM Tris (pH 7.5), 300 mMNaCl, 0.3% Triton X-100, protease inhibitor cocktail, and 1 mM PMSF], and placed on ice for 30 minutes. After the centrifugation (4° C., 1500 rpm, 2 minutes), the supernatant was collected as a cytoplasm fraction.
as §1, §2
as §3, with “sciences). […]” for “sciences).”

[4] = Ligand-DSH 2 μM, acetyl CoA 1 mM, TCEP 100 μM, 5 hours

Compound: CC(=O)NCCSC(C)=O
- histone-selective acetylation [1]: histone-selective acetylation was observed in the same way

Compound: CSCC[C@H](NC(=O)CNC(=O)CCN(C)c1ccnc(CS)c1)C(=O)NC(CCCNC(=N)N)C(=O)N[C@@H](CC(C)C)C(=O)NC(CCCNC(=N)N)C(=O)N[C@@H](CO)C(=O)NCC(=O)N[C@@H](CCCNC(=N)N)C(=O)NC(CO)C(=O)N[C@H](C(=O)NCC(N)=O)C(C)O (stereo partly shown) [LANA-DSH] (X1-GM[ξR]L[ξR]SGR[ξS][Thr(3ξ)]G-NH2)
- 2-hydroxy-iso-butyrylation [2]: enabled
- biotinylation [2]: enabled
- butyrylation [2]: enabled
- glutarylation [2]: enabled
- malonylation [2]: enabled
- histone-selective acetylation [1]: histone-selective acetylation was achieved
- acetylation of H2BK120 (western blotting) ([3]; anti-acetyl Histone H2B (Lys120)): strongly acetylated
- acetylation yield of H2BK120 (reconstituted nucleosome; [4]): 54%
- lysine residue selectivity (reconstituted nucleosome): extremely high

Compound: CON(C(C)=O)C(C)=O [NMD, N-methoxydiacetamide]
- non-selective acetylation of cytoplasm proteins (cytoplasm proteins): non-selectively acetylated a large quantity of protein

Compound: CN(CCCNC(=O)CCN(C)c1ccnc(CS)c1)CCCNC(=O)c1cc(NC(=O)c2cc(NC(=O)c3cc(NC(=O)c4nc(NC(=O)CCCNC(=O)c5cc(NC(=O)c6cc(NC(=O)c7cc(NC(=O)c8nccn8C)cn7C)cn6C)cn5C)cn4C)cn3C)cn2C)cn1C [PIP-DSH]
- histone-selective acetylation [1]: histone-selective acetylation was achieved
- acetylation of H4K77 (western blotting) ([3]; anti-acetyl Histone H4 (Lys77)): strongly acetylated
- acetylation yield of H3K36 (reconstituted nucleosome; [4]): 14%
- acetylation yield of H3K56 (reconstituted nucleosome; [4]): 9%
- acetylation yield of H4K77 (reconstituted nucleosome; [4]): 14%
- lysine residue selectivity (reconstituted nucleosome): high

Compound: CC(=O)SCCNC(=O)CCNC(=O)[C@H](O)C(C)(C)COP(=O)(O)OP(=O)(O)OC[C@H]1O[C@@H](n2cnc3c(N)ncnc32)[C@H](O)[C@@H]1OP(=O)(O)O [acetyl CoA, reference compound]
- non-selective acetylation of cytoplasm proteins (cytoplasm proteins): did not cause such non-selective acetylation
- histone-selective acetylation [1]: acetylation did not proceed
